Test results: patent US20230295066A1, “Process for the Efficient Preparation of (Bio)-Alkanediols” (Symrise AG, priority 2020, published 2023)
Each block holds one molecule with its values, some of them ahead of it.

What was measured:
Staphylococcus aureus = experiment: Minimum Inhibitory Concentration (MIC) test, synergy with antimicrobials; assay type: cell-based; details: for MICB: MIC value for Substance B alone; for MICA: MIC value for Substance A alone; for MICC: MIC value for Substance C alone
Description: (§1) The Minimum Inhibitory Concentration (MIC) test is a test on growth inhibition. The estimation of MICs is executed in 96 well plates. Through the comparison of bacterial growth with positive and negative controls via optical density (OD), different concentrations of given test substances are evaluated.
(§2) Bacteria were cultivated under adjusted conditions based on information of the German Collection of Microorganisms and Cell Cultures (DSMZ) and stored in 50% glycerol prior to use. Afterwards, the following method was applied: Growth medium (according to microorganism) was added to each well of the microplate. Then, the test-substances were added in different concentrations, positive controls (water controls only with medium) and negative controls (benchmarks according to organism). Finally, the microorganisms were added in a concentration of 10^6 CFU/ml (CFU=colony forming units). The incubation of the microplates was carried out at appropriate conditions.
(§3) According to the resulting growth, substance concentrations are labelled either as inhibiting or not and MIC is defined as the lowest concentration where a complete growth inhibition is visible. Experiments at concentration limits (highest concentration labelled as growth and lowest concentration labelled as inhibiting) are performed at least twice.
(§4) Minimum Inhibitory Concentration (MIC) are given in ppm.
The synergistic activity of different combinations of 1,2-nonanediol (C9 nonanediol) and 1,2-heptanediol (C7 heptanediol) as components A and C in combination with different antimicrobial compounds (component B) was determined by measuring the corresponding Minimum Inhibitory Concentrations (MIC).
To verify that the tested combinations act synergistically against microorganisms of the natural microbiota of mammalian skin, a corresponding experiment was conducted with Staphylococcus aureus, a well-known pathogen on the skin. The synergistic activities of 1,2-nonanediol (1,2-C9), 1,2-heptanediol (1,2-C7), 2,3-nonanediol (2,3-C9), 2,3-heptanediol (2,3-C7) and different antimicrobial compounds were determined by measuring the MIC of the mixture as indicated above.
In order to calculate the synergy index with MIC values, the Kull equation (equation 6) was used as follows:
SI=(MICmix×PA)/MICA+(MICmix×PB)/MICB+(MICmix×PC)/MICC Equation (6): Minimum Inhibitory Concentration
(§5) wherein • SI is the Synergy Index according to Kull • MICA is the MIC value for Substance A in ppm • MICB is the MIC value for Substance B in ppm • MICC is the MIC value for Substance C in ppm • MICmix is the MIC value for the mixture of substances A and B and C in ppm • PA is the proportion of the substance A in the mixture • PB is the proportion of the substance B in the mixture • PC is the proportion of the substance C in the mixture

Aspergillus brasiliensis = experiment: Minimum Inhibitory Concentration (MIC) test, alkanediol mixtures; assay type: cell-based; details: for MICA: Comp. A alone; for MICB: Comp. B alone
Description: as §1, §2, §3, §4
To verify that the tested combinations act synergistically against microorganisms of the natural microbiota of mammalian skin, a corresponding experiment was conducted with Aspergillus brasiliensis, a well-known pathogen on the skin. The synergistic activities of different alkanediol mixtures including a 1,2-alkanediol (substance A) and a 2,3-alkanediol (substance B) in ratios as specified in the following Table 5 were determined by measuring the MIC of the mixture as indicated in methods section.
In order to calculate the synergy index with MIC values, the Kull equation (I) was used as follows:
SI=(MICmix×PA)/MICA+(MICmix×PB)/MICB
as §5, with “B” for “B in ppm • MICC is the MIC value for Substance C”, “mixture” for “mixture • PC is the proportion of the substance C in the mixture”

[1] = Solubility in sunflower oil; assay type: physicochemical; details: result in words
[2] = tested on: reactive oxygen species (ROS) on ex vivo skin; experiment: DCF assay, ROS score on ex vivo skin biopsies; assay type: cell-based; details: Cumene hydroperoxide 0.5M
Description: A dichlorofluorescein test (DCF) assay was performed in order to determine the amount of reactive oxygen species (ROS) on ex vivo skin treated with different test samples in a lipophilic or an aqueous/alcoholic system as described below.
DCF assay—assay principle: Ex vivo skin was incubated with 2′,7′-dichlorodihydrofluorescein diacetate at 37° C., 5% CO2. After PBS washing, the samples were exposed or not to cumene hydroperoxide. Immediately after exposure, ex vivo skin samples were frozen in liquid nitrogen and 5 μm cryostat sections were made and fixed with acetone to allow the visualization of fluorescence generated by ROS in cells of the reconstructed skins. The resulting fluorescence was measured at EX/EM 504/524 nm. Green fluorescence was quantified in ex vivo skin using ImageJ software. The depth of immunostaining was measured as follows: green DCFH-DE positive cells were automatically detected using Histolab software and the distance between dermal epidermal junction and the deepest positive cells were measured in each condition. Means were compared using a student's test. Two means were considered statistically different when p<0.005.
The image acquisition was performed by using Olympus BX51 microscope and Olympus DP70 camera. For each skin sample two skin sections have been taken and the related fluorescent images acquired and analysed. Thus, for each test condition, 12 images have been acquired and analysed (i.e. 12 data). The analysis of fluorescence has been performed within the dermis area. For each image the upper dermis has been analysed by evaluating the fluorescence through modified Image-J application (NIH, USA). The analysed area is selected from the upper part by following the perimeter of the basal lamina, to the deep dermis, by carefully avoiding the risk of including irregularities and agglomerates, such as blood vessels, sebaceous glands, hair follicles. The obtained value has been normalized upon the dimension of the selected area.
In addition, as positive control an AOX mix is always co-tested, i.e., as benchmark for the ROS analysis. The AOX mix is a mixture of the following antioxidants: 15% vitamin C, 1% vitamin E, 0.5% ferulic acid in a EtOH/H2O (50:50) mixture.
ROS score method description: The pigmentation score is based on the following process steps: • (1) Analysis of the image based on pixel grey intensities; • (2) Selection of an informative area excluding the pixel area not covered from tissue; • (3) Transformation of pixel grey intensities in degrees of L*; • (4) Normalization of the obtained values on the ratio between the selected area and the area of the slide.
An increased level of ROS (reactive oxygen species) led to an increased amount of fluorescence. […]

MICB (Staphylococcus aureus): 5000 ppm
Molecule: OCc1ccccc1 [Benzyl alcohol, reference compound]

MICB (Staphylococcus aureus): 250 ppm
Molecule: o-Cymen-5-ol [reference compound]

MICA (Staphylococcus aureus): 7500 ppm
MICA (Aspergillus brasiliensis): 5000 ppm
Molecule: CCCCCC(O)CO (stereo not drawn) [1,2-C7, 1,2-heptanediol]

MICB (Aspergillus brasiliensis): 2500 ppm
Solubility in sunflower oil / oil phase [1]: good solubility
Molecule: CCCCCC(O)C(C)O (stereo not drawn) [2,3-C8, 2,3-octanediol]

MICB (Aspergillus brasiliensis): 20000 ppm
Molecule: CCCC(O)C(C)O (stereo not drawn) [2,3-C6, 2,3-hexanediol]

MICA (Staphylococcus aureus): 1000 ppm
MICA (Aspergillus brasiliensis): 500 ppm
Molecule: CCCCCCCC(O)CO (stereo not drawn) [1,2-C9, 1,2-nonanediol]

MICB (Staphylococcus aureus): 1000 ppm
Molecule: CCCCCCCC(=O)NO [Capryl hydroxamic acid, reference compound]

MICC (Staphylococcus aureus): 20000 ppm
MICB (Aspergillus brasiliensis): 7500 ppm
Molecule: CCCCC(O)C(C)O (stereo not drawn) [2,3-C7, 2,3-heptanediol]

MICA (Aspergillus brasiliensis): 2500 ppm
Solubility in sunflower oil / oil phase [1]: tends to precipitate or recrystallize
Molecule: CCCCCCC(O)CO (stereo not drawn) [1,2-C8, 1,2-octanediol]

MICC (Staphylococcus aureus): 2500 ppm
MICB (Aspergillus brasiliensis): 1000 ppm
Molecule: CCCCCCC(O)C(C)O (stereo not drawn) [2,3-C9, 2,3-nonanediol]

Molecule: O=C(CCc1ccc(O)cc1)Nc1ccccc1C(=O)O [50 ppm DHAvD, Dihydroavenanthramide D]
ROS score, Mean Score ([2]; ex vivo skin, mean of 12 tests): 1.72
D percent vs. - A cumene ([2]; ROS score): −14%
D percent vs. untreated cumene ([2]; ROS score): −21%
D percent vs. untreated/No cumene ([2]; ROS score): 1645%

MICA (Aspergillus brasiliensis): 7500 ppm
Molecule: CCCCC(O)CO (stereo not drawn) [1,2-C6, 1,2-hexanediol]
